In patent US6559281B1, “Non-naturally occurring synthetic lytic peptides” (priority 1993, dated 2003):
Where two headings read alike, the source gives them in different places.

Key:
Pseudomonas aeruginosa = assay type: cell-based; details: clinical isolate, 37° C. for one hour; for # of Survivors: minus peptide control 100,000; for % of Control: survivors
Experimental: (§1) In this test, antibiotic resistant clinical isolates of Pseudomonas aeruginosa and Staphylococcus aureus were obtained. The lytic peptide bioassay was performed as described below.
(§2) A flask containing 49 ml of nutrient broth was inoculated with 1 ml of an overnight culture of the test bacteria. The culture was allowed to grow to mid-log phase at 37° C. with shaking (approximately 4 hours). When the cells reached the correct density, the cells were transferred to a sterile tube and centrifuged for 10 minutes at 3000 rpm. The pellet was resuspended in 3 ml of phosphate buffer and centrifuged for 10 minutes at 3000 rpm. The pellet was resuspended once again in sufficient (but measured) volume to calculate the absorbance of the suspension at 600 nm. Using the resulting absorbance and a previously constructed growth curve, the required dilution to achieve a concentration of 10^6 cells/ml was determined.
(§3) The test culture tubes for the bioassay contained 800 μl of phosphate buffer, pH 7.0, 100 μl of cells at 10^6 cells/ml and 100 μl of peptide solution (10 μM to 1 mM). The final concentration of peptide in the assay was from 1 μM to 100 μM. A reaction system minus peptide was included as a control. The tubes were incubated at 37° C. for one hour.
(§4) After the incubation period two 1:10 serial dilutions in phosphate buffer were made for each culture(three 1:10 serial dilutions for the control culture). […] of each dilution was spread on a nutrient agar plate, in duplicate and incubated overnight at 37° C. The following day, the number of colonies on the control plates was counted to determine the starting number of cells in the assay tubes. The number of cells surviving the assay in the presence of peptide was also counted.

Staphylococcus aureus = experiment: In vitro lysis of pathogenic bacteria (lytic peptide bioassay, colony count of survivors); assay type: cell-based; details: clinical isolate, 37° C. for one hour; for # of Survivors: minus peptide control 50,000; for % of Control: survivors
Experimental: as §1, §2, §3, §4

Substance: Ala Val Lys Arg Val Gly Arg Arg Leu Lys Lys Leu Ala Arg Lys Iso Ala Arg Leu Gly Val Ala Phe [SEQ ID NO. 14]
- # of Survivors (Pseudomonas aeruginosa; peptide 1 μM): 100,000
- # of Survivors (Pseudomonas aeruginosa; peptide 10 μM): 2
- % of Control (Pseudomonas aeruginosa; peptide 1 μM): 100%
- % of Control (Pseudomonas aeruginosa; peptide 10 μM): 0.002%
- # of Survivors (Staphylococcus aureus; peptide 1 μM): 50,000
- # of Survivors (Staphylococcus aureus; peptide 10 μM): 2,299
- % of Control (Staphylococcus aureus; peptide 1 μM): 100%
- % of Control (Staphylococcus aureus; peptide 10 μM): 4.6%
